# In PubChem BioAssay AID1198 (NMMLSC, 2008):
# Activity calls are given as the source filed them.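 How the source made its calls: active means EC50 under 10 microM for raising side scatter, a sign of cell differentiation; inactive means the rest, including fits that never converged.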
# Tested on: LNCaP side scatter shift, flow cytometry, 4 days
# Experiment: LNCaP side scatter shift induction by compounds – cell-based, flow cytometry, side scatter granularity, dose response (AID 1198)
row,Structure (SMILES),EC50
1,CCN1CCCC1CNC(=O)C1CCN(Cc2nc(-c3cccc(Br)c3)oc2C)CC1 (configuration not stated),1120 nM
2,CCN1CCN(CCNC(=O)C2CCN(Cc3nc(-c4ccc(Cl)cc4)oc3C)CC2)CC1,16600 nM (inactive)
